# Measurements as given in patent US12595255B2, “Heteroaryl-substituted imidazole derivatives” (Hoffmann-La Roche Inc., priority 2021, dated 2026).
# Tested on: Acinetobacter baumannii ATCC17961
# Assay: Antimicrobial susceptibility testing: 90% growth inhibitory concentration (IC90) determination
# Type: cell-based
# Settings: ATCC17961, 90% growth inhibitory concentration, Iso-Sensitest broth, OD 600 nm over 16 h, 35±2° C., read-out: ATCC 17961 IC90
# Procedure: Assay Procedures Antimicrobial Susceptibility Testing: 90% Growth Inhibitory Concentration (IC90) Determination
# The in vitro antimicrobial activity of the compounds was determined according to the following procedure:
# The assay used a 10-points Iso-Sensitest broth medium to measure quantitatively the in vitro activity of the compounds against Acinetobacter baumannii ATCC17961.
# Stock compounds in DMSO were serially twofold diluted (e.g. range from 50 to 0.097 μM final concentration) in 384 wells microtiter plates and inoculated with 49 μl the bacterial suspension in Iso-Sensitest medium to have a final cell concentration of ˜5×10^5 CFU/ml in a final volume/well of 50 μl/well. Microtiter plates were incubated at 35±2° C.
# Bacterial cell growth was determined with the measurement of optical density at λ=600 nm each 20 minutes over a time course of 16 h. Growth inhibition was calculated during the logarithmic growth of the bacterial cells with determination of the concentration inhibiting 50% (IC50) and 90% (IC90) of the growth.
# Table 1 provides the 90% growth inhibitory concentrations (IC90) in micromoles per liter of the compounds of present invention obtained against the strain Acinetobacter baumannii ATCC17961.
row,SMILES,IC90
1,"Cc1n[nH]c2cc(F)c(-c3cnc(C(=O)Nc4ccc(C(=O)N5CCN(C(=O)C[C@@H]6CCNC6)CC5)c(Cl)c4)n3C)cc12 [Example A2, N-[3-chloro-4-[4-[2-[(3S)-pyrrolidin-3-yl]acetyl]piperazine-1-carbonyl]phenyl]-5-(6-fluoro-3-methyl-1H-indazol-5-yl)-1-methyl-imidazole-2-carboxamide]",0.46 µM
2,"Cn1c(-c2ccc3[nH]nc(C(F)(F)F)c3c2)cnc1C(=O)Nc1ccc(C(=O)N2CCN(C(=O)C[C@@H]3CCNC3)CC2)c(Cl)c1 [Example A3, N-[3-chloro-4-[4-[2-[(3S)-pyrrolidin-3-yl]acetyl]piperazine-1-carbonyl]phenyl]-1-methyl-5-[3-(trifluoromethyl)-1H-indazol-5-yl]imidazole-2-carboxamide]",0.23 µM
3,"Cn1c(-c2ccc(Cl)nc2Cl)cnc1C(=O)Nc1ccc(C(=O)N2CCN(C(=O)C3CCNCC3)CC2)c(Cl)c1 [Example A5, N-[3-chloro-4-[4-(piperidine-4-carbonyl)piperazine-1-carbonyl]phenyl]-5-(2,6-dichloro-3-pyridyl)-1-methyl-imidazole-2-carboxamide]",0.72 µM
4,"COc1ccc(-c2cnc(C(=O)Nc3ccc(C(=O)N4CCN(C(=O)C5CCNCC5)CC4)c(Cl)c3)n2C)c(OC)n1 [Example A7, N-[3-chloro-4-[4-(piperidine-4-carbonyl)piperazine-1-carbonyl]phenyl]-5-(2,6-dimethoxy-3-pyridyl)-1-methyl-imidazole-2-carboxamide]",0.46 µM
5,"COc1cc(-c2cnc(C(=O)Nc3ccc(C(=O)N4CCN(C(=O)C5CCNCC5)CC4)c(Cl)c3)n2C)c(Cl)cn1 [Example A8, 5-(5-chloro-2-methoxy-4-pyridyl)-N-[3-chloro-4-[4-(piperidine-4-carbonyl)piperazine-1-carbonyl]phenyl]-1-methyl-imidazole-2-carboxamide]",0.57 µM
6,"CN(C)c1ncc(-c2cnc(C(=O)Nc3ccc(C(=O)N4CCN(C(=O)C[C@@H]5CCNC5)CC4)c(Cl)c3)n2C)c(C(F)(F)F)n1 [Example A9, N-[3-chloro-4-[4-[2-[(3S)-pyrrolidin-3-yl]acetyl]piperazine-1-carbonyl]phenyl]-5-[2-(dimethylamino)-4-(trifluoromethyl)pyrimidin-5-yl]-1-methyl-imidazole-2-carboxamide]",0.58 µM
7,"COc1ncc(-c2cnc(C(=O)Nc3ccc(C(=O)N4CCN(C(=O)C5CCNCC5)CC4)c(Cl)c3)n2C)c(C(F)(F)F)n1 [Example A10, N-[3-chloro-4-[4-(piperidine-4-carbonyl)piperazine-1-carbonyl]phenyl]-5-[2-methoxy-4-(trifluoromethyl)pyrimidin-5-yl]-1-methyl-imidazole-2-carboxamide]",1.4 µM
8,"Cn1c(-c2cccc3c2ccn3C)cnc1C(=O)Nc1ccc(C(=O)N2CCN(C(=O)C3CCNCC3)CC2)c(Cl)c1 [Example A13, N-[3-chloro-4-[4-(piperidine-4-carbonyl)piperazine-1-carbonyl]phenyl]-1-methyl-5-(1-methylindol-4-yl)imidazole-2-carboxamide]",1.1 µM
9,"Cn1c(-c2ccc3c(c2)OCCO3)cnc1C(=O)Nc1ccc(C(=O)N2CCN(C(=O)C3CCNCC3)CC2)c(Cl)c1 [Example A20, N-[3-chloro-4-[4-(piperidine-4-carbonyl)piperazine-1-carbonyl]phenyl]-5-(2,3-dihydro-1,4-benzodioxin-6-yl)-1-methyl-imidazole-2-carboxamide]",0.52 µM
10,"CN(C)c1nc(F)c(-c2cnc(C(=O)Nc3ccc(C(=O)NCCCCCCN)c(Cl)c3)n2C)cc1F [Example B1, N-[4-(6-aminohexylcarbamoyl)-3-chloro-phenyl]-5-[6-(dimethylamino)-2,5-difluoro-3-pyridyl]-1-methyl-imidazole-2-carboxamide]",1.7 µM
11,"CN(C)CC(=O)N1CCN(C(=O)c2ccc(NC(=O)c3ncc(-c4cc(F)c(N(C)C)nc4F)n3C)cc2Cl)CC1 [Example C1, N-[3-chloro-4-[4-[2-(dimethylamino)acetyl]piperazine-1-carbonyl]phenyl]-5-[6-(dimethylamino)-2,5-difluoro-3-pyridyl]-1-methyl-imidazole-2-carboxamide]",0.53 µM
12,"Cc1cc(NC(=O)c2ncc(-c3cc(F)c(N(C)C)nc3F)n2C)ccc1C(=O)N1CCN(C(=O)CN(C)C)CC1 [Example C2, N-[4-[4-[2-(dimethylamino)acetyl]piperazine-1-carbonyl]-3-methyl-phenyl]-5-[6-(dimethylamino)-2,5-difluoro-3-pyridyl]-1-methyl-imidazole-2-carboxamide]",2.5 µM

# Now from value to compound:
row,IC90,SMILES
1,0.31 µM,"CN(C)c1ccc(-c2cnc(C(=O)Nc3ccc(C(=O)N4CCN(C(=O)C5CCNCC5)CC4)c(Cl)c3)n2C)c(C(F)(F)F)n1 [Example A6, N-[3-chloro-4-[4-(piperidine-4-carbonyl)piperazine-1-carbonyl]phenyl]-5-[6-(dimethylamino)-2-(trifluoromethyl)-3-pyridyl]-1-methyl-imidazole-2-carboxamide]"
2,0.29 µM,"Cn1c(-c2c(Cl)ccc3[nH]ccc23)cnc1C(=O)Nc1ccc(C(=O)N2CCN(C(=O)C[C@@H]3CCNC3)CC2)c(Cl)c1 [Example A11, 5-(5-chloro-1H-indol-4-yl)-N-[3-chloro-4-[4-[2-[(3S)-pyrrolidin-3-yl]acetyl]piperazine-1-carbonyl]phenyl]-1-methyl-imidazole-2-carboxamide]"
3,0.49 µM,"Cn1c(-c2cccc3[nH]ccc23)cnc1C(=O)Nc1ccc(C(=O)N2CCN(C(=O)C3CCNCC3)CC2)c(Cl)c1 [Example A12, N-[3-chloro-4-[4-(piperidine-4-carbonyl)piperazine-1-carbonyl]phenyl]-5-(1H-indol-4-yl)-1-methyl-imidazole-2-carboxamide]"
4,0.23 µM,"COc1ccc(-c2cnc(C(=O)Nc3ccc(C(=O)N4CCN(C(=O)C[C@@H]5CCNC5)CC4)c(Cl)c3)n2C)c(C(F)(F)F)n1 [Example A14, N-[3-chloro-4-[4-[2-[(3S)-pyrrolidin-3-yl]acetyl]piperazine-1-carbonyl]phenyl]-5-[6-methoxy-2-(trifluoromethyl)-3-pyridyl]-1-methyl-imidazole-2-carboxamide]"
5,0.66 µM,"COc1cc(Cl)c(-c2cnc(C(=O)Nc3ccc(C(=O)N4CCN(C(=O)C5CCNCC5)CC4)c(Cl)c3)n2C)cn1 [Example A15, 5-(4-chloro-6-methoxy-3-pyridyl)-N-[3-chloro-4-[4-(piperidine-4-carbonyl)piperazine-1-carbonyl]phenyl]-1-methyl-imidazole-2-carboxamide]"
6,0.28 µM,"COc1ccc(-c2cnc(C(=O)Nc3ccc(C(=O)N4CCN(C(=O)C5CCNCC5)CC4)c(Cl)c3)n2C)c(C(F)(F)F)n1 [Example A16, N-[3-chloro-4-[4-(piperidine-4-carbonyl)piperazine-1-carbonyl]phenyl]-5-[6-methoxy-2-(trifluoromethyl)-3-pyridyl]-1-methyl-imidazole-2-carboxamide]"
7,0.36 µM,"COc1ccc(-c2cnc(C(=O)Nc3ccc(C(=O)N4CCN(C(=O)[C@@H]5C[C@@H](O)CN5)CC4)c(Cl)c3)n2C)c(C(F)(F)F)n1 [Example A17, N-[3-chloro-4-[4-[(2S,4R)-4-hydroxypyrrolidine-2-carbonyl]piperazine-1-carbonyl]phenyl]-5-[6-methoxy-2-(trifluoromethyl)-3-pyridyl]-1-methyl-imidazole-2-carboxamide]"
8,0.26 µM,"COc1ccc(-c2cnc(C(=O)Nc3ccc(C(=O)N4CCN(C(=O)[C@@H]5[C@@H]6CNC[C@@H]65)CC4)c(Cl)c3)n2C)c(C(F)(F)F)n1 [Example A18, N-[4-[4-[(1R,5S)-3-azabicyclo[3.1.0]hexane-6-carbonyl]piperazine-1-carbonyl]-3-chloro-phenyl]-5-[6-methoxy-2-(trifluoromethyl)-3-pyridyl]-1-methyl-imidazole-2-carboxamide]"
9,0.91 µM,"COc1ccc(-c2cnc(C(=O)Nc3ccc(C(=O)N4CCN(C(=O)C5CCNCC5)CC4)c(Cl)c3)n2C)c(C(F)F)n1 [Example A19, N-[3-chloro-4-[4-(piperidine-4-carbonyl)piperazine-1-carbonyl]phenyl]-5-[2-(difluoromethyl)-6-methoxy-3-pyridyl]-1-methyl-imidazole-2-carboxamide]"
10,0.65 µM,"CN(C)c1nc(F)c(-c2cnc(C(=O)Nc3ccc(C(=O)N4CCN(C(=O)C[N+](C)(C)C)CC4)c(Cl)c3)n2C)cc1F [Example D1, [2-[4-[2-chloro-4-[[5-[6-(dimethylamino)-2,5-difluoro-3-pyridyl]-1-methyl-imidazole-2-carbonyl]amino]benzoyl]piperazin-1-yl]-2-oxo-ethyl]-trimethyl-ammonium]"
11,4.2 µM,"CN(C)c1nc(F)c(-c2cnc(C(=O)Nc3ccc(C(=O)NCCCCCC[N+](C)(C)C)c(Cl)c3)n2C)cc1F [Example D3, 6-[[2-chloro-4-[[5-[6-(dimethylamino)-2,5-difluoro-3-pyridyl]-1-methyl-imidazole-2-carbonyl]amino]benzoyl]amino]hexyl-trimethyl-ammonium]"

# Same assay, conditions: ATCC17961, 16 h, read-out: ATCC 17961 IC90 [μM]
row,SMILES,IC90
1,"Cn1c(-c2c(F)ccc3[nH]ccc23)cnc1C(=O)Nc1ccc(C(=O)N2CCN(C(=O)C[C@@H]3CCNC3)CC2)c(Cl)c1 [Example A1, N-[3-chloro-4-[4-[2-[(3S)-pyrrolidin-3-yl]acetyl]piperazine-1-carbonyl]phenyl]-5-(5-fluoro-1H-indol-4-yl)-1-methyl-imidazole-2-carboxamide]",0.23 µM
